Test results: article PMC8709211, “Improving Membrane Activity and Cargo Delivery Efficacy of a Cell-Penetrating Peptide by Loading with Carboranes” (Pharmaceutics, 2021)

Columns and labels:
[1] = CF-leakage assay, negatively charged LUVs; details: 1 µM peptide, 25 °C, 90 min; fluorescence, normalized to Triton x-100; duplicate, n = 2
Description: (§1) Large unilamellar vesicles (LUVs) were prepared by dissolving different lipids in CHCl3, to reach the desired compositions (lipids were purchased from Avanti Polar Lipids, Inc., Alabaster, AL, USA). To remove the solvent, the mixture was placed into a round-bottomed flask on ice and the solvent was evaporated under reduced pressure for 20 min at 40 °C and afterwards under vacuum for another 5 min. The dried lipid film was then hydrated with HKS buffer (25 mM HEPES, 150 mM KCl, pH 7.4, 10% sucrose (w/v)), supplemented with 100 mM 5(6)-carboxyfluorescein (CF), and homogenized for 5 min at 45 °C to form liposomes (final concentration: 8 mM). The resulting multilamellar vesicle dispersion underwent 10 freeze/thawing cycles and was passed 21 times through a mini extruder (0.4 µm polycarbonate treck-etch membrane; Avanti Polar Lipids, Inc., Alabaster, AL, USA). External CF was removed by size exclusion chromatography (PD10 column, GE Healthcare, Chicago, IL, USA). Peptides were added to the LUVs and the CF release was monitored by measuring the increased fluorescence intensity on a plate reader (Biotek, Winooski, VT, USA). […]
(§2) Our results thus far inspired us to investigate how the novel CB-conjugates would perform in a lipid environment. […] Both lipid systems were additionally loaded with CF in order to monitor membrane leakage via fluorescence dye outflow.

HeLa cells [2] = assay: Cellular uptake by flow cytometry; assay type: cell-based; details: 1 µM CF-labeled peptide, serum-free medium, 30 min, 37 °C, triplicate, n = 3
Description: HeLa cells were seeded onto 24-well plates (Sarstedt, Nümbrecht, Germany, 100,000 cells per well, respectively). After reaching 80–90% confluency, medium was removed, and cells were incubated with 1 µM CF-labeled peptide solution in serum-free medium for either 30 min or 2 h at 37 °C. The peptide solution was removed, cells were washed twice with PBS, and trypsinized for 5 min. Detached cells were resuspended in full medium (phenol red free) and afterwards analyzed using a guava easycyte HT flow cytometer (Merck, Darmstadt, Germany).

[3] = Circular dichroism spectroscopy (alpha-helical content, R-value); assay type: physicochemical; details: for % of alpha helix, 50% TFE / % of alpha helix, Phosphate Buffer: CD, calculated per ref 31; for % of alpha helix, 50% TFE: 20 µM peptide in 10 mM phosphate buffer (pH 7.0) with 50% TFE (v/v); for % of alpha helix, Phosphate Buffer / R-value, Phosphate Buffer: 20 µM peptide in 10 mM phosphate buffer (pH 7.0); for R-value, Phosphate Buffer / R-value, 50% TFE: ratio between the molar ellipticity values at 222 and 208 nm; for R-value, 50% TFE: 20 µM peptide in 10 mM phosphate buffer (pH 7.0) with 50% TFE
Description: Conjugates were dissolved in 10 mM phosphate buffer (pH 7.0), either alone or supplemented with 50% TFE (v/v), to a final concentration of 20 µM. CD spectra of all conjugates were recorded from 180–260 nm (0.5 nm intervals) on a J-715 spectropolarimeter (JASCO, Pfungstadt, Germany) in an N2 atmosphere.
To find out more, we performed CD spectroscopy for all peptides solved either in phosphate buffer or in phosphate buffer supplemented with trifluoroethanol (TFE), respectively. All conjugates and sC18 adopted an alpha-helix, when present in phosphate buffer with TFE (Figure S20). On the other hand, when CB-conjugates were solved in phosphate buffer only (Figure 1C), some of them directly formed distinct secondary structures. […] Taking this observation into account, we concluded that the number of CB moieties actually promoted the formation of alpha-helical structures. This effect might be further explained by the helical wheel projection of each conjugate showing that the hydrophobic face of the peptide was clearly enlarged when three or more CB units were attached (see Figure S21). […]

[4] = Critical micelle concentration (CMC) determination by UV-VIS; assay type: physicochemical; details: peptide in water, 1–200 µM; UV absorbance at 255 nm plotted against logarithm of peptide concentration, intersection point of two lines
Description: Peptide conjugates were dissolved in water and different concentrations (1–200 µM) were prepared. UV-VIS spectra ranging from 200–700 nm were recorded using a 1 cm path length quartz cuvette in a Spectroquant Pharo 300 photometer (Merck, Darmstadt, Germany). The absorbance at 255 nm was plotted against the logarithm of the peptide concentration. The intersection point of two lines was determined as CMC.
Since this effect was obviously dependent on the hydrophobic nature of the conjugates, we were then interested in whether they would also self-assemble and form nanostructures, such as micelles or fibrils. An easy to apply and fast method makes use of changes in spectroscopic properties associated with micelle formation. For this, one measures the UV absorbance at a specific wavelength as a function of the concentration. Because aggregates like micelles and free molecule species contribute to a different extent to the absorbed UV light, an abrupt change of the slope occurs above a certain point. The corresponding concentration is defined as the critical micelle concentration (CMC). We measured the UV-VIS spectra of all CB-sC18 conjugates and observed for all an additional concentration-dependent maximum at 255 nm (Figure 1A,B and Table 2), whereas this maximum was not detected for meta-carborane-1-carboxylic acid (Figure S14) or sC18 alone (Figure S15).
Thus, we hypothesized this maximum as evidence for a possible self-assembly, and by plotting the absorbance at 255 nm against the logarithm of the peptide concentration, we assigned the intersection point as CMC.

[5] = CF-leakage assay, zwitterionic LUVs; details: 1 µM peptide, 25 °C, 90 min; fluorescence, normalized to Triton x-100; duplicate, n = 2
Description: as §1, §2

human red blood cells = assay: Hemolysis assay; assay type: cell-based; details: human RBCs 5% (v/v in PBS), 37 °C, up to 25 µM peptide, absorption at 560 nm, normalized to Triton-x-100 control, triplicate, n = 2
Description: Human red blood cells were washed five times with PBS (4 °C, 3000× g, 5 min) and diluted to 5% (v/v in PBS). In total, 100 µL of this solution were transferred into a fresh 96-well plate. In total, 50 µL of peptide solution were added and gently resuspended. Red blood cells were incubated for either 1 or 24 h at 37 °C and 5% CO2, respectively. In total, 50 µL of 10% Triton-x-100 were added 10 min prior to the end of the incubation time and served as a positive control. After incubation, cells were centrifuged (r.t., 2500× g, 3 min). The supernatant was carefully transferred into a fresh 96-well plate and the absorption at 560 nm was measured on a Tecan infinite M200 plate reader (Tecan Group AG, Männedorf, Switzerland). The measured absorption referred to the hemoglobin concentration.
Next, we incubated human red blood cells (RBCs) with different concentrations of CB-sC18 conjugates at 37 °C for 1 or 24 h, respectively. Since their cell membranes are mainly composed of neutral lipids, RBCs serve as an excellent biological model for the lytic activity of a peptide. […] For sC18, this agreed with the detected low activity when in contact with zwitterionic LUVs. […] The same activity profile was observed when incubating peptide conjugates with RBCs for only one hour (Figure S30), whereas the effects started at concentrations higher than 5 µM. […]

HeLa cells [6] = assay: Cell viability assay (resazurin); assay type: cell-based; details: 37 °C, serum-free medium, 125 nM–100 µM, relative to untreated cells
Description: In total, 17.000 HeLa cells per well were seeded onto 96-well plates (Sarstedt, Nümbrecht, Germany). After confluency of 80–90% was reached, the growth medium was removed, and cells were incubated with 100 µL of peptide solution of different concentrations (125 nM–100 μM in serum-free medium) for 24 h at 37 °C. For a positive control, cells were treated with 70% EtOH for 10 min. Cells were washed with serum-free medium and incubated with 10% (v/v) resazurin (Sigma-Aldrich, Merck group: Darmstadt, Germany) in serum-free medium for 1.5 h at 37 °C. Cell viability was determined by measurement of the resorufin product at 595 nm (λex = 550 nm) on a Tecan infinite M200 plate reader (Tecan Group AG, Männedorf, Switzerland). Viability was calculated from the fluorescence values of treated cells in relation to untreated cells.

Row | Substance | CF release (leakage) from negatively charged LUVs [1] | Cellular uptake into HeLa cells, 30 min (HeLa cells [2]) | % of alpha helix, 50% TFE [3] [%] | % of alpha helix, Phosphate Buffer [3] [%] | R-value, Phosphate Buffer [3] | R-value, 50% TFE [3] | CMC [4] [µM] | CF release (leakage) from zwitterionic LUVs [5] | Hemolytic activity towards RBCs, 24 h (human red blood cells) | Cytotoxicity towards HeLa cells, 24 h (HeLa cells [6])
1 | CB-KKKK-GLRKRLRKFRNKIKEK [CB5-sC18, sC18 conjugate bearing five meta-carborane clusters] | increased outflow of CF | decreased again | 50.15 | 21.09 | 0.87 | 0.92 | 44.37 ± 1.16 | same leakage profile as CB1-sC18 | – | –
2 | CB‐KKKK‐LLIILRRRIRKQAHAHSK [CB5-pVEC, pVEC conjugate bearing five meta-carborane clusters] | – | – | 45.48 | 22.96 | 0.79 | 0.79 | – | – | – | –
3 | KK-GLRKRLRKFRNKIKEK [CB2-sC18, sC18 conjugate bearing two meta-carborane clusters] | – | – | 60.49 | 5.45 | – | 0.89 | – | – | able to lyse RBCs | –
4 | KKK-GLRKRLRKFRNKIKEK [CB3-sC18, sC18 conjugate bearing three meta-carborane clusters] | – | – | 56.10 | 16.68 | 0.56 | 0.88 | 44.46 ± 1.14 | – | – | –
5 | KKKK‐LLIILRRRIRKQAHAHSK [CB4-pVEC, pVEC conjugate bearing four meta-carborane clusters] | – | – | 59.84 | 22.59 | 0.92 | 0.84 | – | – | – | –
6 | KKK‐LLIILRRRIRKQAHAHSK [CB3-pVEC, pVEC conjugate bearing three meta-carborane clusters] | – | – | 65.76 | 16.98 | 0.99 | 0.82 | – | – | – | –
7 | KK‐LLIILRRRIRKQAHAHSK [CB2-pVEC, pVEC conjugate bearing two meta-carborane clusters] | – | – | 51.36 | 20.41 | 0.84 | 0.82 | – | – | – | –
8 | K‐LLIILRRRIRKQAHAHSK [CB1-pVEC, pVEC conjugate bearing one meta-carborane cluster] | – | – | 44.28 | 17.72 | 0.57 | 0.82 | – | – | – | –
9 | LLIILRRRIRKQAHAHSK [pVEC, VE-cadherin-derived cell-penetrating peptide, reference compound] | – | – | 48.60 | 12.18 | 0.37 | 0.73 | – | – | – | –
10 | meta-carborane-1-carboxylic acid [reference compound] | – | – | – | – | – | – | – | – | – | nearly no cytotoxicity
